Measurements from patent US9067894B1, “Compound, composition, and method of activating GIRK potassium channel and use of same for treating conditions of interest” (Vanderbilt University, priority 2013, dated 2015).
“Also recorded” adds a separate entry of the source.

Biological target: T1, GIRK2/3 (Homo sapiens, UniProt P48051+Q92806)
T1 construct: expressed in transfected cells; host or cells: HEK-293
T1 sequence (P48051 1-423): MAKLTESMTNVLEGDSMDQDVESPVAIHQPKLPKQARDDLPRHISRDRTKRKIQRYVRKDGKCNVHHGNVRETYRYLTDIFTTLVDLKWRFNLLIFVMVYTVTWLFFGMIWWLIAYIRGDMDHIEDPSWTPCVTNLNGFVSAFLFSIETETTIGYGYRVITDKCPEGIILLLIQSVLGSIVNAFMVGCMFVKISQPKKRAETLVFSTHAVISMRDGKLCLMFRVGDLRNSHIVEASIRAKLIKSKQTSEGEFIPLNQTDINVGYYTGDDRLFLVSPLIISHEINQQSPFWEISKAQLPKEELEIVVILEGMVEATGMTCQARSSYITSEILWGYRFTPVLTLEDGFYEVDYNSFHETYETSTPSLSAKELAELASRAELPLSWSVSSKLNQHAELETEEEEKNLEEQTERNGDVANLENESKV
T1 sequence (Q92806 1-393): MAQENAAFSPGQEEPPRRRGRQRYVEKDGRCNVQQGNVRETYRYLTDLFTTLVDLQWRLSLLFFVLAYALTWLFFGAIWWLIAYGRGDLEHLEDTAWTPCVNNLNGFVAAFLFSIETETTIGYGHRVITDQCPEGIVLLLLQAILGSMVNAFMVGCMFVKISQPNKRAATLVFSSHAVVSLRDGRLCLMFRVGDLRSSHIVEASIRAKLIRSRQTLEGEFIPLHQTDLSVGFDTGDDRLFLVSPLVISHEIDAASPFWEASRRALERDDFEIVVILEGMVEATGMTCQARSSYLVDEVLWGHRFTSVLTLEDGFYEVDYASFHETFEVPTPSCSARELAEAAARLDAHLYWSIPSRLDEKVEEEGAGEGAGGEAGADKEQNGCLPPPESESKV
Test: Thallium flux assay, HEK-293 cells expressing GIRK2/3
Assay type: cell-based
Settings: cell line GIRK2-3
From the text: Cell Line Construction and Cell Culture. HEK-293 cells co-expressing human GIRK1/2 and rat mGlu8 were generated as previously described (Niswender et al., 2008). A HEK-293 cell line (ATCC, Manassas, Va.) expressing human GIRK1 and human GIRK2 was constructed by transfecting HEK-293 cells with GIRK1 and GIRK2 (Origene, Rockville, Md.) cloned into the pBudCE4.1 vector (Life Technologies, Carlsbad, Calif.) using FuGene 6 (Promega, Madison, Wis.) transfection reagent. Unless otherwise noted, other ion channel-expressing cells were prepared by transfecting HEK-293 cells with individual or combinations of subunits: GIRK1, pCMV6-A-BSD; GIRK2, pCMV6-A-puro; GIRK3, pCMV6-A-hygro; GIRK4, pCMV6-A-AC; Kv7.4, pIRESneo3. The Kir2.1 and hERG-expressing cell lines were made by transfecting T-REx-293 cells (Life Technologies, Carlsbad, Calif.) with Kir2.1 and Kv11.1, respectively, cloned into pcDNA5TO. Monoclonal cell lines were produced by limiting-dilution cloning of antibiotic-resistant cells and functional selection using the thallium flux assay described below. Unless otherwise noted, cells were maintained in Minimal Essential Medium, Alpha Medium (Mediatech, Manassas, Va.) supplemented with 10% fetal bovine serum (Sigma-Aldrich, Saint Louis, Mo.) and GlutaGro (Mediatech, Manassas, Va.), referred to henceforth as cell culture medium. […]

Cc1cc(NC(=O)Nc2ccc(F)c(F)c2)n(-c2ccccc2)n1 [VU0456810, 1-(3,4-difluorophenyl)-3-(3-methyl-1-phenyl-1H-pyrazol-5-yl)urea]
EC50 Thallium Flux: complete lack of efficacy; also recorded: Inactive | EC50 Thallium Flux (listed as 2): inactive
